Reference: patent publication USRE35281E, “Tetrazole derivatives and aldose reductase inhibition therewith” (Wakamoto Pharmaceutical Co., Ltd., priority 1989, dated 1996)

Experiments:
aldose reductase [1] = molecular target: T1, aldose reductase (Rattus norvegicus, UniProt P07943); assay: Aldose Reductase Inhibition Test (Experiment 1); assay type: biochemical, rat (male SD rat crystalline lens); conditions: DL-glycerine aldehyde 10 mM, pH 6.2, 30° C., 5 min; for inhibition at 50 µM: final concentration 5×10^-5 M (values without asterisk); for inhibition at 1 µM: *Concentration of 10^-6 M
T1 construct: their crystalline lenses were immediately removed and stored at -80° C; The lenses were homogenized; from tissue; host or cells: crystalline lens of six-week-old male SD rats (homogenate supernatant, dialysed)
Experimental: (§1) Six-week-old male SD rats were killed under ether anesthesia and their crystalline lenses were immediately removed and stored at -80° C. The lenses were homogenized in 3 volumes of 135 mM sodium potassium phosphate buffer (pH: 7.0) and centrifuged at a rate of 30,000 rpm for 30 min. The supernatant was dialyzed overnight against 0.05M sodium chloride, to produce an aldose reductase solution. All operations were conducted at 4° C. The enzyme solution was stored at -80° C.
(§2) The activity of aldose reductase was determined according to a slight modification of the method of J. H. Kinoshita et al [J. Biol. Chem., 240, 877 (1965)]. Namely, 0.1 ml of DL-glycerine aldehyde (final concentration: 10 mM) was added to 0.9 ml of 100 mM sodium potassium phosphate buffer (pH 6.2) which contained lithium sulfate (final concentration: 400 mM), reduced nicotinamide adenine dinucleotide phosphate (final concentration: 0.15 mM), the enzyme solution, and the compound to be tested (final concentration: 5×10^-5 M or 10^-6 M), and then the reaction was conducted at 30° C. for 5 min. […] The maximum reducing rate of the absorbance (U) during the reaction was determined. By substracting, from this value, the maximum reducing rate (Uo) at 340 nm of the reaction solution before the addition of the substrate (DL-glycerine aldehyde), the reaction rate (V) (V=U-Uo) was calculated as a true reaction rate in the presence of the compound to be tested.
(§3) The same procedure was repeated except for the absence of the compound to be tested. A true reaction rate (Vo) in case the enzyme was not inhibited was calculated (Vo =U'-Uo '). The inhibitory activity of aldose reductase was determined by the following formula. [formula]

aldose reductase [2] = molecular target: T1, aldose reductase; assay: Aldose reductase inhibition, IC50 determination (Experiment 2); assay type: biochemical, rat (male SD rat crystalline lens); conditions: calculated from inhibitions at three final concentrations; DL-glycerine aldehyde 10 mM, pH 6.2, 30° C.
Experimental: as §1, with “The lenses were homogenized in 3 volumes of 135 mM sodium potassium phosphate buffer (pH: 7.0) and centrifuged at a rate of 30,000 rpm for 30 min.” left out
as §2, with “Namely,” for “The activity of aldose reductase was determined according to a slight modification of the method of J. H. Kinoshita et al [J. Biol. Chem., 240, 877 (1965)]. Namely,”
as §3
In the same manner as Experiment 1, the inhibitions at final concentrations of 10^-6, 10^-7 and […] for the compound to be tested were calculated.

[3] = Acute toxicity test, oral (Experiment 3); conditions: mouse, in vivo, suspended in 0.5% sodium carboxymethyl cellulose, male MCH mice, 14 days observation
Text: The compound listed in Table 7 and suspended in 0.5% sodium carboxymethyl cellulose was orally administered to male MCH mice (6 weeks old: 5 animals per test group).
During the test, the mice were able to take food and water freely.

Compound: O=C(O)Cn1nnnc1-c1cccc(NC(=O)C(=O)O)c1 [Compound 3-12, 3'-(1-Carboxymethyl-tetrazol-5-yl)oxanilic acid]
- inhibition at 50 µM (aldose reductase [1]): 97%
- IC50 (aldose reductase [2]): 31 nM
- LD50 at 336 h [3]: > 3000 mg/kg

Compound: COC(=O)Cn1nnnc1-c1ccc(C)cc1 [Compound 1-7, Methyl 5-(4-methylphenyl)-1-tetrazoleacetate]
- inhibition at 50 µM (aldose reductase [1]): 59%
- LD50 at 336 h [3]: > 3000 mg/kg

Compound: Cc1ccc(-c2nnnn2CC(=O)O)cc1 [Compound 3-6, 5-(4-Methylphenyl)-1-tetrazoleacetic acid]
- inhibition at 1 µM (aldose reductase [1]): 98%
- IC50 (aldose reductase [2]): 25 nM
- LD50 at 336 h [3]: > 3000 mg/kg

Compound: O=C(O)Cn1nnnc1-c1ccccc1 [Compound 3-1, 5-Phenyl-1-tetrazoleacetic acid]
- inhibition at 1 µM (aldose reductase [1]): 97%
- IC50 (aldose reductase [2]): 32 nM
- LD50 at 336 h [3]: > 3000 mg/kg
